As usually defined, the IC50 is the concentration at which inhibition is half-maximal. In general, MIC refers to the lowest concentration that inhibits growth of the organism. One may read the logD as lipophilicity at a set pH, counting ionised and neutral species.

Here are results for 25 compounds from ChEMBL document CHEMBL1143274, “Potent and selective inhibitors of Helicobacter pylori glutamate racemase (MurI): pyridodiazepine amines” (Bioorg Med Chem Lett, 2009).

Series [1] in a line: Protein binding in mouse plasma. The following applies: read-out: PPB (converted). It is filed as ADME, cell-free.
Series [2] addresses T1, Glutamate racemase (Helicobacter pylori J99, UniProt Q9ZLT0).
T1 sequence (Q9ZLT0 whole entry): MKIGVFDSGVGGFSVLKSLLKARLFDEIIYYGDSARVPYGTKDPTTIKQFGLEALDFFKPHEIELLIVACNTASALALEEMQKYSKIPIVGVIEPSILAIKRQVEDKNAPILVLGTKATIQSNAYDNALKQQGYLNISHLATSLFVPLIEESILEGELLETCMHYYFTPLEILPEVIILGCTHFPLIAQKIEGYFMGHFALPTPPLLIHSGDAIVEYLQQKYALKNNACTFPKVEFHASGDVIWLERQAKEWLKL
Put plainly: Inhibition of MurI in wild type Helicobacter pylori J99.

The next series deals with Liver microsomes. Put plainly: Metabolic stability in human liver microsomes assessed as intrinsic clearance. Format: ADME, Microsome. Also noted: unit not given here. (In general: Liver microsomes are a subcellular fraction often used to study metabolism.)
The subject of a further series is Helicobacter pylori. Put plainly: Antimicrobial activity against Helicobacter pylori SS1 by NCCLS method. It is filed as functional.
Series [3] can be described thus: Metabolic stability in mouse liver microsomes assessed as intrinsic clearance. Also noted: unit not given here. It is filed as ADME, Microsome.
In another series the test system is Enterococcus faecalis. Put plainly: Antimicrobial activity against Enterococcus faecalis. Format: functional.
The target of series [4] is T2, Glutamate racemase (Enterococcus faecalis (strain ATCC 700802 / V583), UniProt Q836J0).
T2 sequence (Q836J0 whole entry): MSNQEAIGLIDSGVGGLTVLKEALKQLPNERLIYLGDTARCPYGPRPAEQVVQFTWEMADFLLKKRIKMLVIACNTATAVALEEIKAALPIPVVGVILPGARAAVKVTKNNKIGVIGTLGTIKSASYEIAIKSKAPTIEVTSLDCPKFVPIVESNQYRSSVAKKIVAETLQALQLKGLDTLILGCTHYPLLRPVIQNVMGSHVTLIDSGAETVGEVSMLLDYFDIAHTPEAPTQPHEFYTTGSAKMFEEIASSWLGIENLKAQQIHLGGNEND
Put plainly: Inhibition of Enterococcus faecalis MurI.

The nature of series [5]: Inhibition of Escherichia coli MurI.
Series [6] in a line: Distribution coefficient, log D of the compound. The following applies: octanol/water. Format: physicochemical.
In a further series the test system is Staphylococcus aureus. Put plainly: Antimicrobial activity against Staphylococcus aureus. It is filed as functional.
The next series deals with Escherichia coli. Put plainly: Antimicrobial activity against Escherichia coli. Format: functional.
A short description of series [7]: Inhibition of Staphylococcus aureus MurI.

Values after ≈ are worked out from the molar mass of the structure shown. Where only a bound is given, the exact number is not on record here.

With `CNC1=Nc2ncccc2C(c2cc[nH]c2)=NC1c1cccs1` (stereo not given), the fraction unbound in [1] was 0.246. Moreover, on Glutamate racemase [2], the midpoint of inhibition, the IC50, lay at 0.6 µM. Further, the CL with Liver microsomes was found to be 19; in series [3], 36. Moreover, the MIC in the series on Helicobacter pylori stood at 0.4 µg/mL (≈ 1.24 µM).
`CNC1=Nc2ncccc2C(c2ccco2)=NC1c1cc(C#CC(C)O)cs1` (stereo not given): the fraction unbound in [1] was 0.091. The same compound gave a 50% inhibitory concentration (IC50) at Glutamate racemase [2] of 4.9 µM. Further, the CL was determined as 7 in the series on Liver microsomes and 17 in series [3]. This compound also gave an MIC in the series with Helicobacter pylori of 4 µg/mL (≈ 10.2 µM).
The like results for `CNC1=Nc2ncccc2C(c2ccccc2)=NC1c1cccs1` (stereo not given) were, in that order, 0.041, 2.2 µM, 40, 82 and 0.17 µg/mL (≈ 0.511 µM).
Regarding `CNC1=Nc2nc(C)ccc2C(c2ccccc2)=NC1c1cccs1` (stereo not given), the fraction unbound in series [1] is 0.039. The compound also came in with an IC50 against Glutamate racemase [2] of 1.7 µM. Further, the results for the CL (in the series with Liver microsomes; in series [3]) were 73 and > 100, respectively. In addition, in the series with Helicobacter pylori, inhibition of growth (MIC) required 0.25 µg/mL (≈ 0.722 µM).
As to `CNC1=Nc2ncccc2C(c2ncco2)=NC1c1cccs1` (stereo not given), the fraction unbound in [1] is 0.257. The compound further returned an IC50 at Glutamate racemase [2] of 7.7 µM. Moreover, the figures for the CL (with Liver microsomes; in series [3]) were < 5 and 19, respectively. Moreover, the MIC against Helicobacter pylori was 1 µg/mL (≈ 3.09 µM).
For `CNC1=Nc2ncccc2C(c2ccns2)=NC1c1cccs1` (stereo not given), in [1], the fraction unbound was 0.241. This compound also had an IC50 on Glutamate racemase [2] of 1.1 µM. The CL is 18 in the series on Liver microsomes and 37 in series [3]. Moreover, the MIC with Helicobacter pylori was 0.32 µg/mL (≈ 0.943 µM).
In the same order, the values of `CNC1=Nc2ncccc2C(c2ccco2)=NC1c1cncs1` (stereo not given) are 0.391, 8.6 µM, 22, 32 and 4 µg/mL (≈ 12.4 µM).
For the compound `CNC1=Nc2ncccc2C(c2ccco2)=NC1c1ccco1` (stereo not given), in series [1], the fraction unbound was 0.193. Also, half-maximal inhibition at Glutamate racemase [2] (IC50) was put at 18.5 µM. Besides, the CL with Liver microsomes was 9; in [3] it was 19. The minimum inhibitory concentration (MIC) in the series with Helicobacter pylori came to 8 µg/mL (≈ 26.1 µM).
On to `NC1=Nc2ccccc2C(c2ccccc2)=NC1c1cccs1` (stereo not given), for which the fraction unbound in [1] was 0.02. Besides, on Glutamate racemase [2], 400 µM corresponded to half-maximal inhibition (IC50). The CL (with Liver microsomes; in series [3]) was > 100 each time. Also, 32 µg/mL (≈ 101 µM) was the least that counted as inhibitory with Helicobacter pylori (MIC).
As to `CCNC1=Nc2ccccc2C(c2ccccc2)=NC1c1cccs1` (stereo not given), the fraction unbound in series [1] was 0.003. The compound further registered an IC50 at Glutamate racemase [2] of 1.1 µM. Moreover, the CL with Liver microsomes was 46; in series [3], > 100. Besides, the MIC with Helicobacter pylori stood at 2 µg/mL (≈ 5.79 µM).
As for `CNC1=Nc2ccc(Cl)cc2C(c2ccccc2)=NC1c1cccs1` (stereo not given), the IC50 against Glutamate racemase [2] was 13 µM. For the same compound, the values for the CL (in the series with Liver microsomes; in series [3]) were 52 and > 100, respectively. Besides, the minimum inhibitory concentration (MIC) against Helicobacter pylori turned out to be 8 µg/mL (≈ 21.9 µM).
`COCCNC1=Nc2ccccc2C(c2ccccc2)=NC1c1cccs1` (stereo not given) yielded an IC50 at Glutamate racemase [2] of 18.9 µM. Also, the values for the CL (with Liver microsomes; in series [3]) were 80 and > 100, respectively. For the same compound, the minimal inhibitory concentration (MIC) with Helicobacter pylori was 32 µg/mL (≈ 85.2 µM).
Compound `c1ccc(C2=NC(c3cccs3)C(N3CCCC3)=Nc3ccccc32)cc1` (stereo not given) showed a concentration for half-maximal inhibition (IC50) against Glutamate racemase [2] of 4 µM. Also, the CL was 43 in the series with Liver microsomes and 87 in [3]. For the same compound, the MIC against Helicobacter pylori amounted to 8 µg/mL (≈ 21.5 µM).
Regarding `CNC1=Nc2ncccc2C(c2cccs2)=NC1c1cccs1` (stereo not given), the fraction unbound in [1] is 0.03. Moreover, it took 0.7 µM to reach half-maximal inhibition on Glutamate racemase [2] (IC50). Besides, the CL is 30 with Liver microsomes and > 100 in series [3]. For the same compound, in the series on Helicobacter pylori, the MIC was determined as 0.25 µg/mL (≈ 0.739 µM).
Consider `CNC1=Nc2ncccc2C(c2ccco2)=NC1c1cccs1` (stereo not given), for which the fraction unbound in series [1] is 0.182. In addition, the IC50 against Glutamate racemase [2] was determined as 2 µM. For the same compound, the CL in the series with Liver microsomes was found to be 13; in series [3], 30. Also, it took 0.19 µg/mL (≈ 0.589 µM) to inhibit growth against Helicobacter pylori (MIC).
In the case of `c1ccc(C2=NC(c3cccs3)C(NC3CC3)=Nc3ccccc32)cc1` (stereo not given), in [1], the fraction unbound was 0.03. Further, at Glutamate racemase [2], it took 1.1 µM to reach half-maximal inhibition (IC50). The CL was 50 with Liver microsomes and 74 in [3]. The same compound came in with an MIC against Helicobacter pylori of 8 µg/mL (≈ 22.4 µM).
As for `CNC1=Nc2ccccc2C(c2ccccc2)=NC1c1cccs1` (stereo not given), the MIC was > 64 µg/mL with Enterococcus faecalis, > 64 µg/mL in the series with Staphylococcus aureus, 0.5 µg/mL (≈ 1.51 µM) in the series on Helicobacter pylori and > 64 µg/mL against Escherichia coli. Also, in series [1], the fraction unbound is 0.003. For the same compound, the concentration for half-maximal inhibition (IC50) on Glutamate racemase [4] was > 400 µM; in series [5], > 400 µM; on Glutamate racemase [2], 1.7 µM; in [7], > 400 µM. The log distribution coefficient (logD) in series [6] is 4.1. Moreover, the CL is given as 43 in the series on Liver microsomes and 97 in series [3].
Consider `CNC1=Nc2cncnc2C(c2ccccc2)=NC1c1cccs1` (stereo not given), for which the fraction unbound in series [1] is 0.158. Also, the half-inhibitory concentration (IC50) against Glutamate racemase [2] was found to be 50 µM. Further, the CL was 36 in the series on Liver microsomes and 26 in series [3]. The compound further came in with an MIC against Helicobacter pylori of 64 µg/mL (≈ 192 µM).
As for `CNC1=Nc2ncccc2C(c2ccco2)=NC1c1sccc1Cl` (stereo not given), the fraction unbound in [1] was 0.013. On Glutamate racemase [2], this compound yielded a half-maximal inhibitory concentration (IC50) of 2.8 µM. The results for the CL (with Liver microsomes; in series [3]) were 74 and > 150, respectively. In addition, in the series on Helicobacter pylori, inhibition of growth (MIC) required 0.5 µg/mL (≈ 1.4 µM).
Take `CNC1=Nc2ncccc2C(c2ccco2)=NC1c1ccns1` (stereo not given): the fraction unbound in [1] was 0.264. Further, at Glutamate racemase [2], the half-maximal inhibitory concentration (IC50) was found to be 8.7 µM. Besides, the CL in the series on Liver microsomes was 26; in [3], 27. In the series on Helicobacter pylori, it took 2 µg/mL (≈ 6.18 µM) to inhibit growth (MIC).
In the same order, the values of `CNC1=Nc2ncccc2C(c2nccs2)=NC1c1cccs1` (stereo not given) are 0.17, 1.7 µM, < 14, 33 and 1 µg/mL (≈ 2.95 µM).
In the case of `CNC1=Nc2ncccc2C(C2CCCC2)=NC1c1cccs1` (stereo not given), the fraction unbound in [1] was 0.048. Half-maximal inhibition against Glutamate racemase [2] (IC50) required 4.1 µM. The CL in the series on Liver microsomes was 59; in [3] it was > 100. In addition, the MIC against Helicobacter pylori was 8 µg/mL (≈ 24.7 µM).
As for `CNC1=Nc2c(ccc[n+]2[O-])C(c2ccccc2)=NC1c1cccs1` (stereo not given), in [1], the fraction unbound is 0.353. In addition, on Glutamate racemase [2], the concentration for half-maximal inhibition (IC50) turned out to be 67 µM. In addition, the results for the CL (in the series with Liver microsomes; in [3]) were < 14 and 41, respectively. In the series on Helicobacter pylori, the MIC was 16 µg/mL (≈ 45.9 µM).
As to `OC1CN(C2=Nc3ccccc3C(c3ccccc3)=NC2c2cccs2)C1` (stereo not given), the fraction unbound in series [1] is 0.01. This compound displayed a minimal inhibitory concentration (MIC) against Helicobacter pylori of 0.25 µg/mL (≈ 0.669 µM).
In the case of `CCCNC1=Nc2ccccc2C(c2ccccc2)=NC1c1cccs1` (stereo not given), the half-inhibitory concentration (IC50) at Glutamate racemase [2] is 4 µM. The CL with Liver microsomes was 30; in series [3] it was > 100. In addition, inhibition of growth in the series on Helicobacter pylori (MIC) required 16 µg/mL (≈ 44.5 µM).
